Test results as given in patent publication US6875761B2 (Eisai Co., Ltd., priority 1997, dated 2005).
Structures can show the parent of a compound that is named as a salt.

melting point	Structure (SMILES)
145 to 147 °C	CCN1CCN(c2nc(-c3ccc(C(O)CCO)cc3)cc3ccccc23)CC1 (stereo not drawn) (as salt: hydrochloride) [Example 24, 3-[4-(1,3-dihydroxypropyl)phenyl]-1-(4-ethylpiperazin-1-yl)isoquinoline hydrochloride]
228 °C (dec.)	CCN1CCN(c2nc(-c3ccc(CO)c(F)c3)cc3ccccc23)CC1 (as salt: hydrochloride) [Example 28, 1-(4-ethylpiperazin-1-yl)-3-[4-(4-hydroxymethyl-3-fluoro)phenyl]isoquinoline hydrochloride]
123 to 124 °C	CCN1CCN(c2nc(-c3ccc(CCCO)c(Cl)c3)cc3ccccc23)CC1 (as salt: hydrochloride) [Example 30, 3-[3-chloro-4-(3-hydroxypropyl)phenyl]-1-(4-ethylpiperazin-1-yl)isoquinoline hydrochloride]
157 to 160 °C	CCN1CCN(c2nc(-c3ccc(OC)c(CCCO)c3)cc3ccccc23)CC1 (as salt: hydrochloride) [Example 34, 3-[3-(3-hydroxypropyl)-4-methoxyphenyl]-1-(4-ethylpiperazin-1-yl)isoquinoline hydrochloride]
128 to 132 °C	CCN1CCN(c2nc(-c3ccc(OC)c(CCCCO)c3)cc3ccccc23)CC1 (as salt: hydrochloride) [Example 35, 3-[3-(4-hydroxybutyl)-4-methoxyphenyl]-1-(4-ethylpiperazin-1-yl)isoquinoline hydrochloride]
232 to 234 °C	CCN1CCN(c2nc(-c3cc(OCCO)cc(OCCO)c3)cc3ccccc23)CC1 (as salt: hydrochloride) [Example 38, 3-[3,5-di(2-hydroxyethoxy)phenyl]-1-(4-ethylpiperazin-1-yl)isoquinoline hydrochloride]
138 to 140 °C	CCN1CCN(c2nc(-c3ccc(OCCO)c(Cl)c3)cc3ccccc23)CC1 (as salt: hydrochloride) [Example 39, 3-[3-chloro-4-(2-hydroxyethoxy)phenyl]-1-(4-ethylpiperazin-1-yl)isoquinoline hydrochloride]
133 to 136 °C	CCN1CCN(c2nc(-c3ccc(OCCO)c(C)c3)cc3ccccc23)CC1 (as salt: hydrochloride) [Example 40, 3-[3-methyl-4-(2-hydroxyethoxy)phenyl]-1-(4-ethylpiperazin-1-yl)isoquinoline hydrochloride]
248 to 250 °C (dec.)	CCN1CCN(c2nc(-c3ccc(OCCO)c(C(C)C)c3)cc3ccccc23)CC1 (as salt: hydrochloride) [Example 41, 3-[3-isopropyl-4-(2-hydroxyethoxy)phenyl]-1-(4-ethylpiperazin-1-yl)isoquinoline hydrochloride]
143 to 144 °C	CCN1CCN(c2nc(-c3ccc(OCCOC)c(OCCOC)c3)cc3ccccc23)CC1 (as salt: hydrochloride) [Example 43, 3-[3,4-Di(2-Methoxyethoxy)Phenyl]-1-(4-Ethylpiperazin-1-Yl)Isoquinoline Hydrochloride]
223 to 227 °C	CCN1CCN(c2nc(-c3ccc4c(c3)OCO4)cc3ccccc23)CC1 (as salt: hydrochloride) [Example 46, 3-(3,4-Methylenedioxyphenyl)-1-(4-Ethylpiperazin-1-Yl)Isoquinoline Hydrochloride]
153 to 158 °C	CCN1CCN(c2nc(-c3ccc(OCCN(C)C)cc3)cc3ccccc23)CC1 (as salt: hydrochloride) [Example 49, 1-(1-Ethylpiperazin-4-Yl)-3-[4-(2-Dimethylaminoethoxy)Phenyl]Isoquinoline]
123 to 125 °C	CCN1CCN(c2nc(-c3ccc(OCC#N)cc3)cc3ccccc23)CC1 (as salt: hydrochloride) [Example 51, 3-(4-Cyanomethoxyphenyl)-1-(4-Ethylpiperazin-1-Yl)Isoquinoline Hydrochloride]
144 to 146 °C	CCN1CCN(c2nc(-c3ccc(OCCCC#N)cc3)cc3ccccc23)CC1 (as salt: hydrochloride) [Example 53, 3-[4-(3-Cyanopropoxy)Phenyl]-1-(4-Ethylpiperazin-1-Yl)Isoquinoline Hydrochloride]
129 to 131 °C	CCN1CCN(c2nc(-c3ccc(OCCCc4ccncc4)cc3)cc3ccccc23)CC1 (as salt: hydrochloride) [Example 57, 3-{4-[3-(4-Pyridyl)Propoxy]Phenyl}-1-(4-Ethylpiperazin-1-Yl)Isoquinoline Hydrochloride]
241 °C (dec.)	CCN1CCN(c2nc(-c3ccc(C#N)cc3)cc3ccccc23)CC1 (as salt: hydrochloride) [Example 62, 3-(4-Cyanophenyl)-1-(4-Ethylpiperazin-1-Yl)Isoquinoline Hydrochloride]
164 to 166 °C	CCN1CCN(c2nc(-c3ccc(C4=CCC(O)CC4)cc3)cc3ccccc23)CC1 (stereo not drawn) (as salt: hydrochloride) [Example 64, 3-[4-(4-Hydroxy-1-Cyclohexen-1-Yl)Phenyl]-1-(4-Ethylpiperazin-1-Yl)Isoquinoline Hydrochloride]
267 to 268 °C	CCN1CCN(c2nc(-c3ccc(N)cc3)cc3ccccc23)CC1 (as salt: hydrochloride) [Example 65, 3-(4-Aminophenyl)-1-(4-Ethylpiperazin-1-Yl)Isoquinoline Hydrochloride]
160 to 162 °C (dec.)	CCN1CCN(c2nc(-c3ccc(N(C)C)cc3)cc3ccccc23)CC1 (as salt: hydrochloride) [Example 66, 3-[4-(N,N-Dimethylamino)Phenyl]-1-(4-Ethylpiperazin-1-Yl)Isoquinoline Dihydrochloride]
176 to 178 °C	CCC(=O)Nc1ccc(-c2cc3ccccc3c(N3CCN(CC)CC3)n2)cc1 (as salt: hydrochloride) [Example 69, 3-(4-Ethylcarbonylaminophenyl)-1-(4-Ethylpiperazin-1-Yl)Isoquinoline Hydrochloride]

Structure (SMILES)	melting point
CCC(O)c1ccc(-c2cc3ccccc3c(N3CCN(CC)CC3)n2)cc1 (stereo not drawn) (as salt: hydrochloride) [Example 19, 1-(4-ethylpiperazin-1-yl)-3-[4-(1-hydroxypropyl)phenyl]isoquinoline hydrochloride]	143 to 144 °C
CCN1CCN(c2nc(-c3ccc(CCCO)cc3)cc3ccccc23)CC1 (as salt: hydrochloride) [Example 20, 1-(4-ethylpiperazin-1-yl)-3-[4-(3-hydroxypropyl)phenyl]isoquinoline hydrochloride]	116 to 119 °C
CCN1CCN(c2nc(-c3ccc(CCCCO)cc3)cc3ccccc23)CC1 (as salt: hydrochloride) [Example 23, 3-[4-(4-hydroxybutyl)phenyl]-1-(4-ethylpiperazin-1-yl)isoquinoline hydrochloride]	140 to 144 °C
CCN1CCN(c2nc(-c3ccc(C(O)CC(C)(C)O)cc3)cc3ccccc23)CC1 (stereo not drawn) (as salt: hydrochloride) [Example 25, 3-[4-(1,3-dihydroxy-3-methylbutyl)phenyl]-1-(4-ethylpiperazin-1-yl)isoquinoline]	190 to 192 °C
CCN1CCN(c2nc(-c3ccc(C(CC(C)O)OC)cc3)cc3ccccc23)CC1 (stereo not drawn) (as salt: hydrochloride) [Example 26, 3-[4-(3-hydroxy-1-methoxybutyl)phenyl]-1-(4-ethylpiperazin-1-yl)isoquinoline]	171 to 174 °C
CCN1CCN(c2nc(-c3ccc(C(F)CCO)cc3)cc3ccccc23)CC1 (stereo not drawn) (as salt: hydrochloride) [Example 27, 1-(1-Ethylpiperazin-4-yl)-3-[4-(3-hydroxy-1-fluoropropyl)phenyl]isoquinoline]	141 to 146 °C
CCN1CCN(c2nc(-c3ccc(CCCO)c(F)c3)cc3ccccc23)CC1 (as salt: hydrochloride) [Example 29]	126 to 127 °C (dec.)
CCN1CCN(c2nc(-c3ccc(CCCO)c(OC)c3)cc3ccccc23)CC1 (as salt: hydrochloride) [Example 33, 1-(4-ethylpiperazin-1-yl)-3-[4-(3-hydroxypropyl)-3-methoxyphenyl]isoquinoline hydrochloride]	123 to 124 °C
CCN1CCN(c2nc(-c3ccc(OCCO)cc3)cc3ccccc23)CC1 (as salt: hydrochloride) [Example 36, 1-(4-ethylpiperazin-1-yl)-3-[4-(2-hydroxyethoxy)phenyl]isoquinoline dihydrochloride]	127 to 129 °C
CCN1CCN(c2nc(-c3ccc(OCCOC)cc3)cc3ccccc23)CC1 (as salt: hydrochloride) [Example 42, 1-(4-ethylpiperazin-1-yl)-3-[4-(2-methoxyethoxy)phenyl]isoquinoline dihydrochloride]	184.5 to 185 °C (dec.)
CCN1CCN(c2nc(-c3ccc(COCCO)cc3)cc3ccccc23)CC1 (as salt: hydrochloride) [Example 44, 3-[4-(2-Hydroxyethoxylmethylphenyl]-1-(4-ethylpiperazin-1-Yl)Isoquinoline Hydrochloride]	129 to 131 °C
CCN1CCN(c2nc(-c3ccc(OCCF)cc3)cc3ccccc23)CC1 (as salt: hydrochloride) [Example 45, 1-(4-Ethylpiperazin-1-Yl)-3-[4-(2-Fluoroethoxy)Phenyl]Isoquinoline Dihydrochloride]	223 to 224 °C (dec.)
CCN1CCN(c2nc(-c3ccc(OCCn4ccnc4)cc3)cc3ccccc23)CC1 (as salt: hydrochloride) [Example 56, 3-{4-[2-(1-Imidazonyl)Ethoxy]phenyl}-1-(4-Ethylpiperazin-1-Yl)Isoquinoline Hydrochloride]	160 to 162 °C
CCNC(=O)Oc1ccc(-c2cc3ccccc3c(N3CCN(CC)CC3)n2)cc1 (as salt: hydrochloride) [Example 59]	146 to 150 °C
CCCNC(=O)c1ccc(-c2cc3ccccc3c(N3CCN(CC)CC3)n2)cc1 (as salt: hydrochloride) [Example 63, 1-(4-Ethylpiperazin-1-Yl)-3-(4-N-Propylaminocarbonylphenyl)Isoquinoline Hydrochloride]	149 to 150 °C
CCN1CCN(c2nc(-c3ccc(NC(C)=O)cc3)cc3ccccc23)CC1 (as salt: hydrochloride) [Example 68, 3-(4-Acetamidephenyl)-1-(4-Ethylpiperazin-1-Yl)Isoquinoline Hydrochloride]	180 to 182 °C
